In US10758513B2, “Modulators of mitochondrial protein import” (THE REGENTS OF THE UNIVERSITY OF CALIFORNIA, priority 2011, dated 2020):

What was measured:
[1] = tested on: tim10-1 tim9S mitochondria; test: Membrane potential with rhodamine 123; type: biochemical, yeast; settings: 25 μM MitoBloCK-1; CCCP as control
Experimental: Membrane potential measurement assays were conducted with a SPEX spectrofluorometer system (HORIBA Jobin Yvon) with a magnetically stirred cuvette held at 25° C. The quenching of rhodamine 123 fluorescence (Em, =530 nm and Ex=485 nm) was used as previously described (9) to detect changes in mitochondrial membrane potential. Purified tim10-1 tim9S mitochondrial aliquots were thawed and resuspended in respiration buffer (0.65 M mannitol, 0.3 mM EGTA, 3 mm tris-phosphate, 10 mM tris-maleate, pH 6.75). Trials were started by adding 100 nM of rhodamine 123 to respiration buffer. After a period of signal stabilization, mitochondria were added to a concentration of 100 μg/mL. Either drug or DMSO was then added to a final vehicle concentration of 1% following the establishment of baseline quenched fluorescence. Finally, mitochondria were uncoupled with 3 μM CCCP.

WT mitochondria = test: Respiration of WT mitochondria with NADH (oxygen electrode); type: biochemical, yeast; settings: 25 μM MitoBloCK-6; CCCP control
Experimental: Oxygen consumption of WT mitochondria was measured using methods previously described (Claypool et al., 2008a). Briefly, purified WT mitochondria (25 mg/ml) were thawed on ice and tested within 2 hours. Oxygen consumption assays were performed with a Clark-type oxygen electrode in a stirred thermostatically controlled 1.5-ml chamber at 25° C. (Oxytherm, Hansatech). […] Consumption rate was monitored for approximately 2 min. […] Consumption rate was monitored for approximately 3 mins. MitoBloCK-6, SAR compounds, or DMSO was then added and respiration measured for another 3 mins. Uncoupled respiration was achieved as described above.

HeLa cells [2] = test: Mitochondrial morphology in HeLa cells; type: cell-based; settings: 50 μM 12-16 h, up to 100 μM, 20 μM CCCP control
Experimental: (A) HeLa cells were transiently transfected with Su9-EGFP. Following transfection, cells were treated for 12 hr with 50 μM MitoBloCK-6 or control 1% DMSO. As a positive control, cells were incubated with 20 μM CCCP to dissipate the membrane potential. Mitochondria were also stained with 10 μM MitoTracker Red. Mitochondrial morphology was assessed by fluorescence microscopy and the Mitotracker Red and GFP channels were superimposed (Merge). (B) The effect of MitoBloCK-6 on the viability of HeLa cells was assessed with a MTT-based toxicology assay. Cultured cells were treated for 12-16 hr with DMSO or 50 μM and 100 μM MitoBloCK-6. Bars display mean cell viability where 100% was defined as signal from untreated samples. Error bars display standard error of the mean (n=5). (C) The release of cyt c was investigated. Cells were treated with 1% DMSO or 50 μM MitoBloCK-6 for 12-16 hr and fractionated into mitochondrial (M) and cytosolic (C) fractions. Release of mitochondrial proteins was assessed by immunoblot analysis with antibodies against cyt c, Complex V (ATP synthase subunit alpha), pyruvate dehydrogenase (PDH), and cytosolic GAPDH. Treatment with 1 μM staurosporine for 4 hr induced apoptosis and was included as a positive control.
For microscopy experiments, HeLa or HEK293 cells were transiently transfected with Su9-EGFP (Lipofectamine, Invitrogen) at 80% confluency. […]

[3] = tested on: tim10-1 tim9S mitochondria; test: Respiration (oxygen electrode) of tim10-1 tim9S mitochondria; type: biochemical, yeast; settings: NADH; 25 μM MitoBloCK-1; CCCP as control
Experimental: Oxygen consumption of […] mitochondria was measured using methods previously described (8). Briefly, purified […] mitochondria aliquots (25 mg/mL) were thawed on ice and tested within 2 hours. A Clark-type oxygen electrode in a stirred, thermostatically controlled 1.5-ml chamber at 25° C. (Oxytherm; Hansatech) facilitated measurement. […] Consumption rate was monitored for approximately 2 min.

[4] = tested on: tim10-1 tim9S mitochondria; test: In vitro import of radiolabeled precursors into tim10-1 tim9S mitochondria; type: biochemical, yeast; settings: SAR study
Experimental: Prior to import into purified mitochondria, ^35S-methionine and cysteine labeled proteins were generated with TNT Quick Coupled Transcription/Translation kits (Promega) and plasmids carrying the gene of interest. Transcription of genes was driven by either a T7 or SP6 promoter. Import reactions were conducted according to established methods. After frozen mitochondria aliquots were thawed and added to the import buffer at a final concentration of 100 μg/mL, drug or DMSO vehicle was added as indicated. A final vehicle concentration of 1% was used in all experiments. Following 15 minute incubation at 25° C., import reactions were initiated by the addition of […] of translation mix. Aliquots were removed at intervals during the reaction timecourse and import was terminated with either cold buffer, 25 μg/mL trypsin, or a combination of both. If trypsin was added to digest unimported precursor protein, soybean trypsin inhibitor (STI) was subsequently added in excess after 15 minute incubation on ice. After a final recovery of by centrifugation (8,000×g, 5 minutes), mitochondria were disrupted in Laemmli sample buffer. Imports of membrane proteins (AAC, PiC, Tom40, Tim22, and Tim23) included a carbonate extraction step to remove proteins that had not inserted into the membrane (Koehler C M, et al. (1998), Science 279:369-373). Samples from import reaction time points were resolved by SDS polyacrylamide gel electrophoresis (SDSPAGE) and gels were dried prior to exposing to film.

HeLa cells [5] = test: Cyt c release assay by cell fractionation in HeLa cells; type: cell-based; settings: 50 μM MitoBloCK-6 12-16 h, 1 μM staurosporine 4 h
Experimental: For cyt c release assays, a cell fractionation kit (MitoSciences) was used. Briefly, HeLa or HEK293 cells were grown in 10 cm^2 dishes to 80% confluency and then cells were treated with DMSO or MitoBloCK-6 in complete medium for 12-16 h. […] Cells were fractionated to obtain cytosolic and mitochondrial fractions; 100 μg of each fraction was analyzed by SDS-PAGE. Blots were probed with ApoTrack cyt c apoptosis antibody cocktail (MitoSciences).

Erv1 = target: T1, Erv1 (Saccharomyces cerevisiae, UniProt P27882); test: In vitro Erv1 oxidase activity, Amplex Red-HRP assay; type: biochemical, yeast; settings: 100 μM
T1 construct: made in house
T1 sequence (P27882 1-189): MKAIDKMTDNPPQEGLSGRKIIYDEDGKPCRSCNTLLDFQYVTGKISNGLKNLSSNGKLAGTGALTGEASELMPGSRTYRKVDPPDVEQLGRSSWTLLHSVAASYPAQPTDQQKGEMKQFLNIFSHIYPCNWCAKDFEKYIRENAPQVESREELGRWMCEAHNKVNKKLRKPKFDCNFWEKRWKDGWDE
Experimental: The primary chemical screen used fresh recombinant Erv1 (in buffer 30 mM Hepes, pH 7.4, 100 mM NaCl, 1 mM EDTA) at a concentration of 10 μM, which was expressed as described previously. […] A Biomek FX (Beckman Coulter) was used to pin transfer 0.5 μl of compound from 1 mM stock or DMSO to respective wells. Approximate screening
concentration was 12.5 μM. After completed compound transfer, all plates were incubated at 25° C. in a humidified incubator for 1 hour. A Titertek multidrop was used to dispense 15 μl of Amplex Red-horseradish peroxidase (HRP) (Sigma) mix into all wells of the 384-well plate. The final concentration of Amplex Red and HRP were 46 μM and 0.092 U/ml, respectively. The Amplex Red-HRP solution was shielded from light during the entire experiment. The plates were incubated for an additional 10 min and then 15 μl of the substrate DTT (20 μM) was added to initiate the reduction of 02 to H2O2. […] Plates were then read at an endpoint using an excitation wavelength of 545 nm and an emission wavelength of 590 nm. […]
H2O2 production was measured using a standard fluorometric assay with Amplex Red and horseradish peroxidase (HRP). […] Fluorescence intensity was measured and reactions that were inhibited by more than 50% were picked as potential Erv1 inhibitors and selected for secondary analysis.

succinate dehydrogenase = target: T2, succinate dehydrogenase (Saccharomyces cerevisiae, UniProt Q00711); test: Succinate dehydrogenase activity in WT mitochondria (oxygen electrode); type: biochemical, yeast; settings: 25 or 50 μM MitoBloCK-6; 20 mM malonate control
T2 construct: endogenous in cells; host or cells: mitochondria isolated from WT yeast
T2 sequence (Q00711 29-640): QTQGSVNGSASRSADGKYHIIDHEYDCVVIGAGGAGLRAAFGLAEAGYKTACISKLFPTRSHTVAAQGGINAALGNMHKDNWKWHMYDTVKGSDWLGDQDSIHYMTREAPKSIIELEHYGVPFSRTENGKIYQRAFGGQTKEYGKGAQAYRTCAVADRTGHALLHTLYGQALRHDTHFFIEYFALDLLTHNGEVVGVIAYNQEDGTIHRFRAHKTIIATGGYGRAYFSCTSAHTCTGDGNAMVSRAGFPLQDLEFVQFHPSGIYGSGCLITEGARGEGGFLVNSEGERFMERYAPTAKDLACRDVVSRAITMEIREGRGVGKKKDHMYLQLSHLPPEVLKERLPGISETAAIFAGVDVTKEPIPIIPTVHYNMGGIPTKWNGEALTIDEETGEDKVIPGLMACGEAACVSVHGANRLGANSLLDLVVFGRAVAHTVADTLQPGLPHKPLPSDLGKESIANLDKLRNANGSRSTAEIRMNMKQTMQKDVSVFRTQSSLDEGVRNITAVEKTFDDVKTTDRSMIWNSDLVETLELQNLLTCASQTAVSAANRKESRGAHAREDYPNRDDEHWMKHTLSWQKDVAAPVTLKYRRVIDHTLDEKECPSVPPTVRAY
T2 sequence (P21801 21-266 partner): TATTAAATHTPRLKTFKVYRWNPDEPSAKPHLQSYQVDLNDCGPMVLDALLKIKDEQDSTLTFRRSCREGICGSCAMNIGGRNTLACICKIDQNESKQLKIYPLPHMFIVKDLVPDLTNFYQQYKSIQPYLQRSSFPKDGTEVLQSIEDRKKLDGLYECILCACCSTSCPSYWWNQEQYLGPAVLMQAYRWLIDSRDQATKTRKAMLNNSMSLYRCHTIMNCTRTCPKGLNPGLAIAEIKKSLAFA
T2 sequence (P33421 51-198 partner): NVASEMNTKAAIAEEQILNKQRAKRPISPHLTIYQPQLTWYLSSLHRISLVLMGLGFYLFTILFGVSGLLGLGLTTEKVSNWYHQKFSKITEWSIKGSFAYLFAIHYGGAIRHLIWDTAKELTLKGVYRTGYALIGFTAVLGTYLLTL
T2 sequence (P37298 32-181 partner): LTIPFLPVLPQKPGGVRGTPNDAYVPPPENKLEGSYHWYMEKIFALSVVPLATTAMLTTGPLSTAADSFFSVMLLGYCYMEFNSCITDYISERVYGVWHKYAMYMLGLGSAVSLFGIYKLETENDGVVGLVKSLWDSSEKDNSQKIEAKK
Experimental: (A) 160 μM insulin was reacted with 3 units of PDI in the presence of buffer, 1 mM bacitracin, or MitoBloCK-6 (MB-6). Reduction of insulin chains was initiated by the addition of DTT. The samples were incubated for 30 min at room temperature and then the turbidity was measured at a wavelength of 630 nm using a Bio-Tek plate-reader. (B) Succinate dehydrogenase activity was measured in WT mitochondria using a Clark-type oxygen electrode. Respiration was initiated with 10 mM succinate and, when steady-state respiration was established, 25 or 50 μM MitoBloCK-6, 50 μM ES-1, 50 μM ES-2, or 1% DMSO was added. Controls included 20 mM malonate that inhibits succinate dehydrogenase activity and CCCP that uncouples electron transport. The rate is reported as nmol O2 consumed/sec.
Oxygen consumption of WT mitochondria was measured using methods previously described (Claypool et al., 2008a). Briefly, purified WT mitochondria (25 mg/ml) were thawed on ice and tested within 2 hours. […] Consumption rate was monitored for approximately 2 min. MitoBloCK-6 or DMSO was then added to a final vehicle concentration of 1% and respiration was measured for another approximately 1.5 min. […] Consumption rate was monitored for approximately 3 mins. MitoBloCK-6, SAR compounds, or DMSO was then added and respiration measured for another 3 mins. […]

zebrafish embryos = test: Zebrafish embryo development; type: in vivo
Experimental: Zebrafish used for o-dianisidine staining of red blood cells in DMSO and MitoBloCK-6 treated fish were albino lines generated from crosses of TL and TU fish. Line AB were injected with the ALR morpholino. Lines were maintained in a 14-hr light/10-hr dark cycle and mated for one hour to obtain synchronized embryonic development. […] Following treatment, embryos were imaged using a Leica MZ16F fluorescent stereoscope (TexasRed filter set) at 5× magnification. […] Embryos were allowed to mature to 2 dpf and then imaged like the MitoBloCK-6 treated embryos; embryos were imaged at day 2 because of concerns with morpholino dilution. Images were resized to 300 dpi without resampling using Adobe Photoshop software.

## N#CC(C#N)=NNc1cccc(Cl)c1 [CCCP, carbonyl cyanide m-chlorophenylhydrazone, reference compound]
[1]
  rhodamine 123 fluorescence (membrane potential): sharp increase in fluorescence
WT mitochondria
  oxygen consumption rate (NADH respiration): respiration increased drastically
HeLa cells [2]
  mitochondrial network / morphology: caused the mitochondrial network to collapse around the nucleus
[3]
  rate of respiration: respiration increased drastically

## Cc1ccc2c(c1)C1CCC/C(=N\NC(N)=S)C1N2C (stereo not shown) [Analog B]
[4]
  inhibition of import of AAC by analogs: Analog D was the only compound to inhibit import of AAC

## CN[C@@H]1C[C@H]2O[C@@](C)([C@@H]1OC)n1c3ccccc3c3c4c(c5c6ccccc6n2c5c31)C(=O)NC4 [staurosporine]
HeLa cells [5]
  cyt c release: showed cyt c release

## O=Cc1cc(Cl)cc(Cl)c1O [3,5-dichlorosalicylaldehyde, reference compound]
Erv1
  Erv1 activity: did not inhibit Erv1 activity

## O=C(O)CC(=O)O [malonate]
Succinate dehydrogenase
  succinate dehydrogenase activity (oxygen consumption rate with succinate): disrupted

## ALR morpholino: ATG morpholino targeted to zebrafish ALR protein (GAGGGTTGCCAGATCTCTGTTAAAT) (all phosphorodiamidate morpholino (PMO)) [reference compound]
Zebrafish embryos; 4 ng injected in 1-cell embryos
  phenotypes of morpholino-injected embryos: identical to that of MitoBlock-6 exposure
Zebrafish embryos; embryos treated with MitoBloCK-6 or ALR morpholino
  decreased heart rate: 25%
